# Assay: logP(HCOOH) reported with HPLC/MS
# Settings: HCOOH (formic acid), logP(HCOOH), HPLC/MS
row,SMILES,chromatographic logP
1,"Cc1cccc(NC(=O)C(C)(C)C)[n+]1[O-] [2,2-dimethyl-N-(6-methyl-1-oxidopyridin-2-yl)propanamide]",1.5
2,"Cc1cccc(NC(=O)C(C)(C)C)n1 [2,2-dimethyl-N-(6-methylpyridin-2-yl)propanamide]",1.2
3,"Cc1cccc(C2OCCO2)[n+]1[O-] [2-(1,3-dioxolan-2-yl)-6-methylpyridine 1-oxide]",0.45
4,"Cc1cccc(C2OCCO2)n1 [2-(1,3-dioxolan-2-yl)-6-methylpyridine]",1.21
5,"CN(C)c1cccc(C(=NOCc2cccc(N3C(=O)c4ccccc4C3=O)n2)c2nnnn2C)c1 [2-(6-{[({[3-(dimethylamino)phenyl](1-methyl-1H-tetrazol-5-yl)methylene}amino)oxy]methyl}pyridin-2-yl)-1H-isoindole-1,3(2H)-dione]",3.17
6,"O=C1c2ccccc2C(=O)N1Cc1cccc(CCl)n1 [2-{[6-(chloromethyl)pyridin-2-yl]methyl}-1H-isoindole-1,3(2H)-dione]",2.51
7,CON(C)C(=O)c1cccc(N(C)C)c1 [3-(dimethylamino)-N-methoxy-N-methylbenzamide],0.95
8,"CN(C)c1cccc(C(=NO)c2nnnn2C)c1 [3-[(hydroxyimino)(1-methyl-1H-tetrazol-5-yl)methyl]-N,N-dimethylaniline]",1.17
9,"CSc1cccc(C(=NOCc2csc(N)n2)c2nnnn2C)c1 [4-{[({[3-(methylsulfanyl)phenyl](1-methyl-1H-tetrazol-5-yl)methylene}amino)oxy]methyl}-1,3-thiazol-2-amine]",1.76
10,Cc1c(F)ccc(Br)[n+]1[O-] [6-bromo-3-fluoro-2-methylpyridine 1-oxide],0.56
11,CN(C)c1cccc(C(=NOCc2cccc(N)n2)c2nnnn2C)c1 [6-{[({[3-(dimethylamino)phenyl](1-methyl-1H-tetrazol-5-yl)methylene}amino)oxy]methyl}pyridin-2-amine],1.19
12,CSc1cccc(C(=NOCc2cccc(N)n2)c2nnnn2C)c1 [6-{[({[3-(methylsulfanyl)phenyl](1-methyl-1H-tetrazol-5-yl)methylene}amino)oxy]methyl}pyridin-2-amine],1.42
13,"Cc1sc(Br)nc1CO [(2-bromo-5-methyl-1,3-thiazol-4-yl)methanol]",1.1
14,OCc1nc(Br)ccc1F [(6-bromo-3-fluoropyridin-2-yl)methanol],0.92
15,"CCCCCC(=O)NCc1cccc(CON=C(c2ccccc2)c2nnnn2C)n1 [Example 53, N-({6-[({[(1-methyl-1H-tetrazol-5-yl)(phenyl)methylene]amino}oxy)methyl]pyridin-2-yl}methyl)hexanamide]",2.88

# Same assay, conditions: HPLC, logP(HCOOH), HPLC/MS
row,SMILES,chromatographic logP
1,"Cc1sc(Br)nc1CBr [2-bromo-4-(bromomethyl)-5-methyl-1,3-thiazole]",2.64
2,"Cn1nnnc1C(=NOCc1cccc(CN)n1)c1ccccc1 [Example 52, 1-{6-[({[(1-methyl-1H-tetrazol-5-yl)(phenyl)methylene]amino}oxy)methyl]pyridin-2-yl}methanamine]",1.23

# Same assay, conditions: formic acid (HCOOH), logP(HCOOH), HPLC/MS
row,SMILES,chromatographic logP
1,"Cn1nnnc1C(=NOCc1nc(Br)ccc1F)c1ccccc1 [Example 96, N-[(6-bromo-3-fluoro-pyridin-2-yl)methoxy]-1-(1-methyl-1H-tetrazol-5-yl)-1-phenylmethanimine]",3.27

# Same assay, conditions: logP(HCOOH), HPLC/MS
row,SMILES,chromatographic logP
1,"CSc1cccc(C(=NOCc2cccc(N3C(=O)c4ccccc4C3=O)n2)c2nnnn2C)c1 [2-(6-{[({[3-(methylsulfanyl)phenyl](1-methyl-1H-tetrazol-5-yl)methylene}amino)oxy]methyl}pyridin-2-yl)-1H-isoindole-1,3(2H)-dione]",3.39
2,Fc1ccc(Br)nc1CBr [6-bromo-2-(bromomethyl)-3-fluoropyridine],2.58

# Same assay, conditions: method [b]: LC-MS at pH 2.7, 0.1% formic acid in water and acetonitrile, linear gradient 10% to 95% acetonitrile
row,SMILES,log p
1,Cc1nnnn1C(=NOCc1cccc(N=CNC#N)n1)c1ccccc1 [Example 1],2.22^[b]
2,CCN(C)C=Nc1cccc(CON=C(c2ccccc2)n2nnnc2C)n1 [Example 3],1.43^[b]
3,Cc1nnnn1C(=NOCc1cccc(NC(=S)NCc2ccc(Cl)c(Cl)c2)n1)c1ccccc1 [Example 4],4.09^[b]
4,Cc1nnnn1C(=NOCc1cccc(NC(=S)Nc2ccccc2)n1)c1ccccc1 [Example 5],3.31^[b]
5,CCCCCCCCNC(=S)Nc1cccc(CON=C(c2ccccc2)n2nnnc2C)n1 [Example 6],4.97^[b]
6,Cc1nnnn1C(=NOCc1cccc(NC(=S)NCCc2ccccc2)n1)c1ccccc1 [Example 7],3.67^[b]
7,Cc1nnnn1C(=NOCc1cccc(NC(=S)NC2CCCCC2)n1)c1ccccc1 [Example 8],3.81^[b]
8,Cc1nnnn1C(=NOCc1cccc(NC(=S)NC2CCCC2)n1)c1ccccc1 [Example 9],3.53^[b]
9,Cc1nnnn1C(=NOCc1cccc(NC(=S)NCc2ccccc2)n1)c1ccccc1 [Example 10],3.52^[b]
10,C=CCNC(=S)Nc1cccc(CON=C(c2ccccc2)n2nnnc2C)n1 [Example 11],3.09^[b]
11,Cc1nnnn1C(=NOCc1cccc(NC(=S)NC(C)C)n1)c1ccccc1 [Example 12],3.22^[b]
12,CCCCCNC(=S)Nc1cccc(CON=C(c2ccccc2)n2nnnc2C)n1 [Example 13],3.82^[b]
13,COC(=O)c1cccc(CON=C(c2ccccc2)n2nnnc2C)n1 [Example 14],2.47^[b]
14,Cc1nnnn1C(=NOCc1cccc(C(=O)O)n1)c1ccccc1 [Example 15],1.97^[b]
15,CCCCCNC(=O)c1cccc(CON=C(c2ccccc2)n2nnnc2C)n1 [Example 16],3.52^[b]
16,Cc1cccc(CON=C(c2ccccc2)c2nnnn2C)n1 [Example 42],1.67^[b]
17,Cn1nnnc1C(=NOCc1ncc(C(F)(F)F)cc1Cl)c1ccccc1 [Example 43],3.76^[b]
18,Cn1nnnc1C(=NOCc1cccc(CNC(=O)Cc2ccccc2)n1)c1ccccc1 [Example 54],2.7^[b]
19,Cn1nnnc1C(=NOCc1cccc(CNC(=O)C(C)(C)C)n1)c1ccccc1 [Example 55],2.58^[b]
20,CC(C)CC(=O)NCc1cccc(CON=C(c2ccccc2)c2nnnn2C)n1 [Example 56],2.51^[b]
21,CCCCC(=O)NCc1cccc(CON=C(c2ccccc2)c2nnnn2C)n1 [Example 57],2.56^[b]
22,Cn1nnnc1C(=NOCc1cccc(CNC(=O)CCc2ccccc2)n1)c1ccccc1 [Example 58],2.82^[b]
23,CCCCCOC(=O)NCc1cccc(CON=C(c2ccccc2)c2nnnn2C)n1 [Example 60],3.48^[b]
24,CCCCOC(=O)NCc1cccc(CON=C(c2ccccc2)c2nnnn2C)n1 [Example 63],3.19^[b]
25,CC(C)C(C)NC(=O)c1cccc(CON=C(c2ccccc2)c2nnnn2C)n1 (stereo not shown) [Example 75],3.44^[b]

row,SMILES,log p
1,CC(=O)N(CCC1CCCCC1)c1cccc(CON=C(c2ccccc2)c2nnnn2C)n1 [Example 76],4.16^[b]
2,CN(C)C(=O)c1cccc(CON=C(c2ccccc2)c2nnnn2C)n1 [Example 77],2.04^[b]
3,CC(C)c1nc(CON=C(c2ccccc2)c2nnnn2C)cs1 [Example 78],3.39^[b]
4,Cn1nnnc1C(=NOCc1cccc(F)n1)c1ccccc1 [Example 79],2.77^[b]
5,COC[C@H](C)NC(=O)c1cccc(CON=C(c2ccccc2)c2nnnn2C)n1 [Example 83],2.7^[b]
6,CC(C)NC(=O)c1cccc(CON=C(c2ccccc2)c2nnnn2C)n1 [Example 84],2.84^[b]
7,CCCCCN(C)C(=O)c1cccc(CON=C(c2ccccc2)c2nnnn2C)n1 [Example 85],3.29^[b]
8,Cn1nnnc1C(=NOCc1cccc(C(=O)NC(C)(C)C)n1)c1ccccc1 [Example 86],3.37^[b]
9,Cn1nnnc1C(=NOCc1nc(C#CCC2CCCCC2)ccc1F)c1ccccc1 [Example 97],5.28^[b]
10,Cn1nnnc1C(=NOCc1nc(C#CCC2CCCC2)ccc1F)c1ccccc1 [Example 98],4.92^[b]
11,Cn1nnnc1C(=NOCc1nc(C#CCc2ccccc2)ccc1F)c1ccccc1 [Example 100],4.24^[b]
12,CC(C)CCC#Cc1ccc(F)c(CON=C(c2ccccc2)c2nnnn2C)n1 [Example 101],3.13^[b]
13,CCSCC#Cc1ccc(F)c(CON=C(c2ccccc2)c2nnnn2C)n1 [Example 102],3.85^[b]
14,Cn1nnnc1C(=NOCc1nc(C#CCCCC#N)ccc1F)c1ccccc1 [Example 103],3.11^[b]
15,Cn1nnnc1C(=NOCc1nc(C#CCCCc2ccccc2)ccc1F)c1ccccc1 [Example 104],4.84^[b]
16,Cn1nnnc1C(=NOCc1nc(C#CCCCCl)ccc1F)c1ccccc1 [Example 105],3.87^[b]
17,Cn1nnnc1C(=NOCc1nc(C#CCOc2ccccc2)ccc1F)c1ccccc1 [Example 106],4.04^[b]
18,Cn1nnnc1C(=NOCc1nc(C#CCCC2CCCCC2)ccc1F)c1ccccc1 [Example 107],5.68^[b]
19,Cn1nnnc1C(=NOCc1nc(C#CC2CCCCC2)ccc1F)c1ccccc1 [Example 108],4.92^[b]
20,Cn1nnnc1C(=NOCc1cccc(C#CC2CC2)n1)c1ccccc1 [Example 109],3.46^[b]
21,Cn1nnnc1C(=NOCc1cccc(C#CCn2ccc(C(F)(F)F)n2)n1)c1ccccc1 [Example 110],3.62^[b]
22,Cn1nnnc1C(=NOCc1cccc(C#CCC2CCC2)n1)c1ccccc1 [Example 111],4.39^[b]
23,Cn1nnnc1C(=NOCc1cccc(C#CCc2cccc(F)c2)n1)c1ccccc1 [Example 112],4.16^[b]
24,CCCC#Cc1nc(CON=C(c2ccccc2)c2nnnn2C)c(Cl)s1 [Example 115],4.75^[b]
25,Cn1nnnc1C(=NOCc1nc(C#CC2CCCC2)sc1Cl)c1ccccc1 [Example 116],5.31^[b]

# Same assay, conditions: reversed phase HPLC column, pH 2.7, log p, method [b]: LC-MS at pH 2.7, 0.1% formic acid in water and acetonitrile, linear gradient 10% to 95% acetonitrile
row,SMILES,chromatographic logP
1,"Cn1nnnc1C(=NOCc1cccc(CN)n1)c1ccccc1 [Example 52, 1-{6-[({[(1-methyl-1H-tetrazol-5-yl)(phenyl)methylene]amino}oxy)methyl]pyridin-2-yl}methanamine]",1.23
2,"CCCCCC(=O)NCc1cccc(CON=C(c2ccccc2)c2nnnn2C)n1 [Example 53, N-({6-[({[(1-methyl-1H-tetrazol-5-yl)(phenyl)methylene]amino}oxy)methyl]pyridin-2-yl}methyl)hexanamide]",2.88
3,"Cn1nnnc1C(=NOCc1nc(Br)ccc1F)c1ccccc1 [Example 96, N-[(6-bromo-3-fluoro-pyridin-2-yl)methoxy]-1-(1-methyl-1H-tetrazol-5-yl)-1-phenylmethanimine]",3.27

# — US8466176B2 (priority 2008, dated 2013)
